Measured values as given in publication PMC8059561, “Lowered sensitivity of bitter taste receptors to β-glucosides in bamboo lemurs: an instance of parallel and adaptive functional decline in TAS2R16?” (Proceedings of the Royal Society B: Biological Sciences, 2021).

Tests used:
[1] = system: TAS2R16 from H. aureus; assay: Calcium assay, HEK293T cells expressing H. aureus TAS2R16 with Gα16/gust44; assay type: cell-based, Hapalemur aureus
[2] = target: TAS2R16 from L. catta (Lemur catta, UniProt A0A4Y1QJW7); assay: Calcium assay, HEK293T cells expressing L. catta TAS2R16 with Gα16/gust44; assay type: cell-based; details: Calcium 4, mean ± s.e.m.
[3] = target: TAS2R16 from P. simus (Prolemur simus, UniProt A0A8C8ZSN9); assay: Calcium assay, HEK293T cells expressing P. simus TAS2R16 with Gα16/gust44; assay type: cell-based
[4] = system: TAS2R16 from H. griseus; assay: Calcium assay, HEK293T cells expressing H. griseus TAS2R16 with Gα16/gust44; assay type: cell-based, Hapalemur griseus
[5] = system: anc-Bamboo lemur T140A /S144L TAS2R16; assay: Calcium assay, double mutant anc-Bamboo lemur T140A/S144L (reply to referee); assay type: cell-based, last common ancestor (LCA) in bamboo lemurs; details: figure not shown
[6] = system: TAS2R16 orthologue of Varecia variegata; parameters: method as in Itoigawa et al., [8]; details: ref Itoigawa et al., [8]; cited from earlier work
[7] = target: T1, TAS2R16 P. simus L144S (Prolemur simus, UniProt A0A8C8ZSN9, L144S); assay: Calcium assay, single-point mutant P. simus L144S TAS2R16; assay type: cell-based
T1 sequence (A0A8C8ZSN9 1-301 L144S): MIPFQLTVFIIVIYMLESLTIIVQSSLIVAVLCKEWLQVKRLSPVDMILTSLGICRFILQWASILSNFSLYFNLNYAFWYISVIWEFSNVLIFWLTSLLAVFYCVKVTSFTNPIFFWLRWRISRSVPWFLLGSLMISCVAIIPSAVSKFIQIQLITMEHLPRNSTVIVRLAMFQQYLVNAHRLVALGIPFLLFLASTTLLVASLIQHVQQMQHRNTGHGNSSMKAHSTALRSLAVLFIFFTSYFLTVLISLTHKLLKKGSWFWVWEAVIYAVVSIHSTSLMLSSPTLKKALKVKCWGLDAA

[8] = HEK293T, Gα16/gust44, Calcium 5, mean ± s.e.m.

Sequence of TAS2R16 from L. catta (A0A4Y1QJW7 1-301): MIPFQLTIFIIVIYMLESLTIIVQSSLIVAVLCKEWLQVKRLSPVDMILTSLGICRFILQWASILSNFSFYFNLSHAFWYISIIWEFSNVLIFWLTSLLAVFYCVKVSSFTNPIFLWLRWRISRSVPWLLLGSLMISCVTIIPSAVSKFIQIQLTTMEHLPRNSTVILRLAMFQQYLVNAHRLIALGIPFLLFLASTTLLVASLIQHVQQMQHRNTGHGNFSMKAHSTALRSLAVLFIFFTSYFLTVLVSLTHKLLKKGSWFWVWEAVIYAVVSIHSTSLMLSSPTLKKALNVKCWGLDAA
Sequence of TAS2R16 from P. simus (A0A8C8ZSN9 1-301): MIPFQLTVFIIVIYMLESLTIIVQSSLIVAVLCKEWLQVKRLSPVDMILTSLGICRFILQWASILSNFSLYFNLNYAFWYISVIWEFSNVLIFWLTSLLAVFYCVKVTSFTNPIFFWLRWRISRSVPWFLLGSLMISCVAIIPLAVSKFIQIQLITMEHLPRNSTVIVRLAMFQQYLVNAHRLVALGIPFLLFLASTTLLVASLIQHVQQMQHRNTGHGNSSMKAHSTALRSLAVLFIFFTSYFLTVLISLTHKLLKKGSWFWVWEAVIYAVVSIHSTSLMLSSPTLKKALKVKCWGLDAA

Row | Compound | response of TAS2R16 to ligand [1] | EC50 [2] [mM] | response of TAS2R16 to ligand ([3]; at the concentrations used in the assays) | response of TAS2R16 to ligand [4] | Amax (maximal signal amplitude, ΔF/F) [1, 8] | Amax (maximal signal amplitude, ΔF/F) [4, 8] | EC50 ([1]; HEK293T, Gα16/gust44, Calcium 4, mean ± s.e.m.) [mM] | responses of double mutant compared to single mutant (anc-Bamboo lemur S144L) [5] | EC50 [6] [mM] | EC50 ([3]; HEK293T, Gα16/gust44, Calcium 4) [mM] | EC50 [7] [mM]
1 | OC[C@H]1O[C@@H](Oc2ccc(O)cc2)[C@H](O)[C@@H](O)[C@@H]1O [arbutin] | did not show any responses | 2.3 ± 0.21 | did not show any responses | did not show any responses |  |  |  |  |  |  | 
2 | CC(C)(C#N)O[C@@H]1O[C@H](CO)[C@@H](O)[C@H](O)[C@H]1O [linamarin] |  |  |  |  | 0.52 ± 0.041 | 0.33 ± 0.031 |  |  |  |  | 
3 | OCc1ccccc1O[C@@H]1O[C@H](CO)[C@@H](O)[C@H](O)[C@H]1O [salicin] |  | 2.1 ± 0.38 |  |  |  |  | 6.8 ± 1.1 | did not show significant reduction | 3.8 | > 40 | 4.3 ± 0.85
